For one assay, the system named is FSP27. As to the kind of experiment: Western blot of FSP27 protein in articular chondrocytes. The conditions noted are these: 30 μM cilostazol, 1.5 mM oleate; n=4. Type of assay: cell-based, rat. The procedure: Rat articular chondrocytes for primary culture were isolated from knee joint cartilage slices by enzymatic digestion for 1 h with 0.2% type II collagenase (381 units/mg) in DMEM. After the isolated cells were collected by brief centrifugation, they were resuspended in DMEM supplemented with 10% (v/v) FBS, […] streptomycin and 50 units/ml penicillin (Gibco). The cells were plated on culture dishes at a density of 5×10^4 cells/cm^2. The medium was replaced every 2 days, and they reached confluence after approximately 5 days in culture. In each experiment, the cells from three animals were pooled and analyzed three times. FFA were dissolved in absolute ethanol at a concentration of 500 mM and diluted to final concentrations of FFAs with the appropriate concentration of 1% (w/v) FFA-free BSA. Controls were incubated with equal concentrations of FFA-free BSA containing ethanol. […] Cell (2×10^6) were washed twice with ice-cold PBS. Cells were resuspended in lysis buffer [200 ll of icecold solubilizing buffer (300 mM NaCl, 50 mM Tris-Cl (pH 7.6), 0.5% Triton X-100, protease inhibitor cocktail)] and incubated at 4° C. for 30 min. The lysates were centrifuged at 14,000 rpm for 20 min at 4° C. The protein concentrations of the cell lysates were measured with the Bradford protein assay reagent (Bio-Rad). Then, 50 μg of proteins was loaded onto 15 SDS-PAGE. The separated proteins were transferred to nitrocellulose membranes (Amersham Pharmacia Biotech, Piscataway, N.J., USA) and probed with each antibody. Immunostaining with the antibodies was carried out using the Super Signal West Pico enhanced chemiluminescence substrate and detected with LAS-3000PLUS.
(A western blot detects proteins with antibodies after separation by electrophoresis.)

The test system of assay [1] is lipid droplets (LD) in rat articular chondrocytes. Kind of assay: Lipid droplet staining (Nile red, BODIPY), confocal microscopy and quantification. Type of assay: cell-based. As to the method: Rat articular chondrocytes for primary culture were isolated from knee joint cartilage slices by enzymatic digestion for 1 h with 0.2% type II collagenase (381 units/mg) in DMEM. After the isolated cells were collected by brief centrifugation, they were resuspended in DMEM supplemented with 10% (v/v) FBS, […] streptomycin and 50 units/ml penicillin (Gibco). The cells were plated on culture dishes at a density of 5×10^4 cells/cm^2. The medium was replaced every 2 days, and they reached confluence after approximately 5 days in culture. In each experiment, the cells from three animals were pooled and analyzed three times. FFA were dissolved in absolute ethanol at a concentration of 500 mM and diluted to final concentrations of FFAs with the appropriate concentration of 1% (w/v) FFA-free BSA. Controls were incubated with equal concentrations of FFA-free BSA containing ethanol. […] Cells cultured on a coverslip were incubated with diluted Nile red or BODIPY 493/503. Some sections were double-labelled with TUNEL and BODIPY 493/503 and counterstained with Hoechst 33342. Fluorescence images were observed and analyzed using a Zeiss LSM 510 laser-scanning confocal microscope (Goettingen, Germany). Twenty cells from each experiment were observed and auantification of fluorescence intensity of the confocal images were obtained with the use of ImageJ software. Fluorescence intensity was expressed as AU.

In assay [2] the test system is rat articular chondrocytes. As to the kind of experiment: Cell viability assay (automated trypan blue exclusion). Type of assay: cell-based. Conditions: n=4. As to the method: Rat articular chondrocytes for primary culture were isolated from knee joint cartilage slices by enzymatic digestion for 1 h with 0.2% type II collagenase (381 units/mg) in DMEM. After the isolated cells were collected by brief centrifugation, they were resuspended in DMEM supplemented with 10% (v/v) FBS, […] streptomycin and 50 units/ml penicillin (Gibco). The cells were plated on culture dishes at a density of 5×10^4 cells/cm^2. The medium was replaced every 2 days, and they reached confluence after approximately 5 days in culture. In each experiment, the cells from three animals were pooled and analyzed three times.
FFA were dissolved in absolute ethanol at a concentration of 500 mM and diluted to final concentrations of FFAs with the appropriate concentration of 1% (w/v) FFA-free BSA. Controls were incubated with equal concentrations of FFA-free BSA containing ethanol. To examine the effect of several chemicals, cells were pretreated with 150 μg/mL DRB or 30 μM cilostazol for 24 h or 25 ng/ml TNF-α for 3 h before FFA treatment.
siRNA transfection or combination treatment with FFAs. Transfection of siRNA was performed with the use of siPORT Amine and Opti-MEM media. Cells grown to a confluence of 40% to 50% in six-well plates were transfected with 100 nM final siRNA concentration per well. Transfection mixture was added to each well, and incubation occurred for 4 h. Then 2 ml of growth medium was added, and cells were incubated for another 20 h. After siRNA transfection medium was removed, each well was washed in PBS solution. Cells were treated with FFAs for 24 hours.
Recombinant adenoviral STAMP2 was prepared as described previously34. Cells (1×10^7) were infected with recombinant adenoviral STAMP2 at multiplicities of infection (MOI) of 500, 1000 and 1500 to the medium.
An automated trypan blue exclusion assay was undertaken. Total cells and trypan bluestained (i.e., nonviable) cells were counted, and the percentage of nonviable cells was calculated using the Vi-Cell cell counter (Beckman Coulter, Miami, Fla., USA).

Assay [3] concerns rat articular chondrocytes. Kind of assay: DNA hypoploidy / cell cycle analysis by flow cytometry (apoptosis). Type of assay: cell-based. The conditions noted are these: 30 μM cilostazol, 1.5 mM oleate; n=4. The procedure:
Rat articular chondrocytes for primary culture were isolated from knee joint cartilage slices by enzymatic digestion for 1 h with 0.2% type II collagenase (381 units/mg) in DMEM. After the isolated cells were collected by brief centrifugation, they were resuspended in DMEM supplemented with 10% (v/v) FBS, […] streptomycin and 50 units/ml penicillin (Gibco). The cells were plated on culture dishes at a density of 5×10^4 cells/cm^2. The medium was replaced every 2 days, and they reached confluence after approximately 5 days in culture. In each experiment, the cells from three animals were pooled and analyzed three times. FFA were dissolved in absolute ethanol at a concentration of 500 mM and diluted to final concentrations of FFAs with the appropriate concentration of 1% (w/v) FFA-free BSA. Controls were incubated with equal concentrations of FFA-free BSA containing ethanol. […] Cells were washed twice with PBS, and fixed with cold 70% ethanol at 4° C. overnight. The fixed cells were pelleted and ethanol was removed by washing twice with PBS containing 1% bovine serum albumin (BSA). The cells were resuspended in 1 ml of PBS containing 11 Kunitz U/ml RNase A, incubated at 4° C. for 30 min and washed once with BSAPBS. Cells were resuspended in PI solution (50 μg/ml) and incubated at 37° C. for 30 min in dark. […]

These results are taken from US20180369327A1, “METHOD FOR TREATING OR PREVENTING OSTEOARTHRITIS” (Dong-A University Research Foundation for Industry-Academy …, priority 2017, published 2018).

As to `O=C1CCc2cc(OCCCCc3nnnn3C3CCCCC3)ccc2N1` [cilostazol], the “effect on oleate-induced downregulation of FSP27” value with FSP27 is listed as “prevented the 1.5 mM oleate-induced downregulation of FSP27”. In addition, the “LD size and LD accumulation” value in assay [1] (30 μM cilostazol, 1.5 mM oleate) was “increases LD size and LD accumulation”. Also, in assay [1] (cilostazol in cells treated with 0.4 mM oleate and 1.6 mM palmitate), the LD accumulation entry was “augmented the LD accumulation”. The “total LD volume” value in assay [1] (cilostazol versus 1.5 mM oleate alone, n=4) is recorded as “significantly increased”. Further, the “oleate-induced LD fragmentation” value in assay [1] (cilostazol, 1.5 mM oleate, n=4) is “prevented oleate-induced LD fragmentation”. The “influence on lipotoxicity of oleate/palmitate combination (viability)” value in assay [2] (0.4 mM oleate with 0.6 or 1.6 mM palmitate) is on record as “reciprocal influences on lipotoxicity”. The “effect on oleate-induced cell death (viability)” value in assay [2] (cilostazol pre-treatment, 1.5 mM oleate) is “prevented 1.5 mM oleate-induced cell death”. Also, the “effect on oleate-induced apoptosis (histograms)” value in assay [3] was “prevented 1.5 mM oleate-induced apoptosis”.
